Measurements reported in BindingDB's records for doi:10.1074/jbc.M113.514067 (Genentech, 2014).

Biological target: Proprotein convertase subtilisin/kexin type 9 (Homo sapiens, UniProt Q8NBP7)
Assay: PCSK9 Inhibition Assay
Protocol: For the peptide affinity determinations, biotinylated PCSK9 was immobilized to NeutrAvidin-coated MaxiSorp Immuno-Plates and incubated with a mixture of serially diluted synthetic peptide (Pep2-2 or Pep2 at 0-100 μM) and the correspondingpeptide-displaying phage at the earlier determined subsaturating concentration (see above). After a 1-h incubation in PBT buffer (PBS, 0.5% BSA, 0.05% Tween 20), the plate was washed extensively, and the bound phage was detected by anti-M13-HRP. The data were fitted to a four-parameter equation (KaleidaGraph) to determine the IC50 values. For IC50 measurements of the Pep2-2 derivatives (Fig. 1C) and for the truncated Pep2-8 peptides (Table 1), we used the peptides in a concentration range of 0-250 μM and the Pep2-2-displaying phage at subsaturating concentrations.

Chain of Proprotein convertase subtilisin/kexin type 9 (Q8NBP7 31-152 limits assumed): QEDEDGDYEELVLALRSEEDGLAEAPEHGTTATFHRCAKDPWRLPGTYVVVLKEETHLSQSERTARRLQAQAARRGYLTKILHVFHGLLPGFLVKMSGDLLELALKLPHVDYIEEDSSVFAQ
Chain of Proprotein convertase subtilisin/kexin type 9 (Q8NBP7 153-692 limits assumed): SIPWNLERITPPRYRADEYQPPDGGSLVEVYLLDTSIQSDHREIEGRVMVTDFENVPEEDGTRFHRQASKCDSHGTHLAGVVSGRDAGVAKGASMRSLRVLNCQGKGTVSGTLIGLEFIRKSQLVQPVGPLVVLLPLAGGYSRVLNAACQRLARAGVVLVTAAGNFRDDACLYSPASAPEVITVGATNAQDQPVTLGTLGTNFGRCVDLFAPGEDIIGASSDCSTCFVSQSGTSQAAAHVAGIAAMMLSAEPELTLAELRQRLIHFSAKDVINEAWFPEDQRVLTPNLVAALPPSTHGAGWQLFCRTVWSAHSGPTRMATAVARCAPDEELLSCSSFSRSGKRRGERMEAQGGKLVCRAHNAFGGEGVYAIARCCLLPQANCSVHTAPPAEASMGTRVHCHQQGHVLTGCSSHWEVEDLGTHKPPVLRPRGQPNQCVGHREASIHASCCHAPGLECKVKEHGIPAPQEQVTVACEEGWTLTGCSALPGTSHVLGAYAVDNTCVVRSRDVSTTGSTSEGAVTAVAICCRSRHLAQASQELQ

IC50 [µM]	Molecule
17.6	Ac-TVFTSWEEYL-NH2 [TVFTSWEEYL]
4	Ac-VFTSWEEYLLWV-NH2 [VFTSWEEYLLWV]
37.7	Ac-VVFTSWQDYLFWV-NH2 [VVFTSWQDYLFWV]

The remaining lines, values behind:

Molecule	IC50 [µM]
CC(=O)N[C@H](C(=O)N[C@H](C(=O)N[C@@H](Cc1ccccc1)C(=O)N[C@H](C(=O)N[C@@H](CO)C(=O)N[C@@H](Cc1c[nH]c2ccccc12)C(=O)N[C@@H](CCC(=O)O)C(=O)N[C@@H](CCC(=O)O)C(=O)N[C@@H](Cc1ccc(O)cc1)C(=O)N[C@@H](CC(C)C)C(=O)N[C@@H](CC(=O)O)C(=O)N[C@@H](Cc1c[nH]c2ccccc12)C(=O)N[C@H](C(N)=O)C(C)C)[C@@H](C)O)C(C)C)[C@@H](C)O [TVFTSWEEYLDWV]	1.4
Ac-TVFTSWEEYLL-NH2 [TVFTSWEEYLL]	10
Ac-TVFTSWEEYLLW-NH2 [TVFTSWEEYLLW]	6.2
Ac-TVFTSWEEYLLWV-NH2 [TVFTSWEEYLLWV]	0.76
